{"source": "patent US20050255155A1", "about": "“Modified release cilostazol compositions” (Glenmark Pharmaceuticals Limited, priority 2004, published 2005)", "origin": "cited, not measured here", "conditions": "BCS characterisation", "data": [{"smiles": "O=C1CCc2cc(OCCCCc3nnnn3C3CCCCC3)ccc2N1", "note": "[cilostazol, 6-[4-(1-cyclohexyl-1H-tertazole-5-yl)butoxy]-3,4-dihydro-2 (1H)-quinolinone]", "values": [{"measurement": "solubility", "result": "low solubility"}]}]}
